# Like-named read-outs stand apart in the source and are kept apart here.
# Experiments:
# Aedes aegypti [1] = test: Warm Body assay, mosquito landings on treated warm body; assay type: in vivo
# Procedure, shortened: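 Compounds in ethanol (100 μL, various concentrations) were applied to a sandblasted glass dish covering the warm body (28.3 cm^2), with ethanol as control. Landings were counted automatically from 30 non-blood-fed, sugar-fed Aedes aegypti Rockefeller females aged 5–10 days, under 150 lux.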
# Aedes aegypti [2] = test: Free flying room assay, spatial repellence with human volunteer; assay type: in vivo
# Excerpt: The goal of this large-scale test is to assess the propensity of stimulus released in the air to protect a human volunteer by limiting the mosquito presence in a protected space and the number of landing/biting. The protocol used to carry the test is following the guidelines indicated in WHO (2013; ISBN 978 92 4 150502 4).
# A group of 50 Aedes aegypti female mosquitoes were introduced in one chamber of 25 m^3 one hour before the test started. The product was applied in the other chamber of 25 m^3 (“treated chamber”) and let evaporate for 30 minutes. The test started when the window separating the two chambers was opened in a tilt-on manner for another 30 minutes. Twenty minutes after the window was opened, a volunteer entered in the “treated chamber” and sat down for 10 minutes, exposing the forearm for the last 3 minutes to determine the probing activity (Protective Efficacy). Then, the connecting window was closed and the number of mosquitoes in each of the chambers was counted (Spatial Repellency). The negative controls were carried out following the same procedure but without the application of the stimulus. Three replicates of each treatment and of the negative control were conducted with three different volunteers.
# Ixodes ricinus = test: Warm Plate assay, tick repellence; settings: Ixodes ricinus, read-out: Percentage of repellence of ticks Ixodes ricinus on the warm plate
# Aedes aegypti [3] = test: Double (dual) chamber assay, spatial repellence; assay type: in vivo
# Experimental: FIG. 1: Percentage of mosquitoes Aedes aegypti escaping over time the chamber treated with a stimulus. The four stimuli were the solvent propan-1,2-diol (grey triangles and dotted line), N,N-diethyl-meta-toluamide (medium grey diamonds), 2,6-dimethoxy-4-methylphenol (light gray squares) and 1,2,3-trimethoxy-5-propylbenzene (black circles). Each stimulus was injected during 40 min thanks to a forced evaporation system in the treated chamber containing the mosquitoes, causing their movement toward the untreated refuge chamber. Each point represents the mean number of mosquitoes in the untreated chamber (n=57, 6, 4 and 4 respectively)±SD at 10 min intervals.
# The goal of this assay was to reproduce at a smaller scale the validation test for spatial repellent as described in WHO (2013; ISBN 978 92 4 150502 4).
# The assay consists of a transparent cage (1200×755×700 mm; ˜0.63 m^3) covered by white paper. This cage is divided in two chambers of equal dimensions by a plasticized paper wall with square opening (200×200 mm) situated in the middle of the wall. At the beginning of the experiment, about 40 two-weeks old female Aedes aegypti mosquitoes are placed in the right chambers. Once the mosquitoes are settled inside this chamber (>5 min), the door between the chambers is opened. Then the stimulus is introduced into the mosquito chamber through a L-shape Teflon tube (40 mm) placed in the middle of the right Plexiglas wall. The stimulus is dispensed thanks to a Forced Evaporation System (Chappuis et al, 2015, DOI: 10.1021/acs.est.5b00692) at a rate of 0.1 mL/min in a nitrogen flow of 1 L/min, blended in a humid air flow of 9L/min before being carried to the L-shape Teflon tube. An air sucking system (˜150 L/min) is placed above the wall opening, between the two chambers (100 mm Ø), preventing the untreated chamber from being contaminated by the stimulus and limiting the stimulus accumulation in the treated chamber. […] Ten, 20, 30 and 40 minutes after the start of the stimulus injection, the number of mosquitoes that have moved to the untreated chamber is manually counted.
# Anopheles gambiae [4] = test: Arm-in-cage test on human volunteers over time; assay type: in vivo
# Anopheles gambiae [5] = test: Warm Body assay, mosquito landings on treated warm body; assay type: in vivo
# Experimental: Anopheles gambiae is also a model organism as it is anthropophilic and transmits malaria.
# The controlling effect according to the present invention was assessed using an adapted Warm Body assay as defined in Kröber T, Kessler S, Frei J, Bourquin M, Guerin P M. 2010. J Am Mosq Control Assoc. 26: 381-386. In this in-vitro assay the number of mosquito landing on a warm body, simulating an attractive host treated with the tested stimuli, was measured in order to assess the repellence effect.
# On the sandblasted glass Petri dish covering the warm body (28.3 cm^2), 100 μL of the compounds diluted at different concentrations in ethanol was applied. The number of mosquito landing on the warm body was counted for each stimulus and pure ethanol (solvent) as control.
smiles,measurement,setting,value
"COc1cc(C)cc(OC)c1O [compound 1537, 2,6-dimethoxy-4-methylphenol]",pest or weed control at 3.2 µg/mL,"Aedes aegypti [1]; Aedes aegypti, 0.0032 mg/mL (Table 2), read-out: Percentage of repellence of mosquitoes Aedes aegypti landing on the warm body",0%
same,pest or weed control at 16 µg/mL,"Aedes aegypti [1]; Aedes aegypti, 0.016 mg/mL (Table 2), read-out: Percentage of repellence of mosquitoes Aedes aegypti landing on the warm body",35%
same,pest or weed control at 35.7 µg/mL,"Aedes aegypti [1]; Aedes aegypti, 0.0357 mg/mL (Table 2), read-out: Percentage of repellence of mosquitoes Aedes aegypti landing on the warm body",36%
same,pest or weed control at 80 µg/mL,"Aedes aegypti [1]; Aedes aegypti, 0.08 mg/mL (Table 2), read-out: Percentage of repellence of mosquitoes Aedes aegypti landing on the warm body",40%
same,pest or weed control at 178 µg/mL,"Aedes aegypti [1]; Aedes aegypti, 0.178 mg/mL (Table 2), read-out: Percentage of repellence of mosquitoes Aedes aegypti landing on the warm body",62%
same,pest or weed control at 400 µg/mL,"Aedes aegypti [1]; Aedes aegypti, 0.4 mg/mL (Table 2), read-out: Percentage of repellence of mosquitoes Aedes aegypti landing on the warm body",89%
same,pest or weed control at 890 µg/mL,"Aedes aegypti [1]; Aedes aegypti, 0.89 mg/mL (Table 2), read-out: Percentage of repellence of mosquitoes Aedes aegypti landing on the warm body",84%
same,pest or weed control at 2000 µg/mL,"Aedes aegypti [1]; Aedes aegypti, 2 mg/mL (Table 2), read-out: Percentage of repellence of mosquitoes Aedes aegypti landing on the warm body",100%
same,pest or weed control at 10000 µg/mL,"Aedes aegypti [1]; Aedes aegypti, 10 mg/mL (Table 2), read-out: Percentage of repellence of mosquitoes Aedes aegypti landing on the warm body",100%
same,mosquitoes landed on the volunteer,"Aedes aegypti [2]; in 3 minutes, negative control 60.7±2.5 landings",14.7±2.5
same,Spatial Repellence,"Aedes aegypti [2]; large scale assay, 25 m3 chambers, compound released in the air",64.3 ± 3.4%
same,Protective efficacy,"Aedes aegypti [2]; large scale assay, probing on volunteer forearm, 3 minutes",75.8 ± 3.9%
same,mosquito entered the treated chamber,Aedes aegypti [2]; negative control 82.5±3.7%,29.5±2.8%
same,pest or weed control at 400 µg/mL,Ixodes ricinus,16.7%
same,pest or weed control at 2000 µg/mL,Ixodes ricinus,58.3%
same,pest or weed control at 10000 µg/mL,Ixodes ricinus,72.7%
same,plateau of mosquitoes moved to the untreated chamber,Aedes aegypti [3]; after 30 min of injection,~42%
"Cc1ccc2c(c1)OCC(=O)CO2 [compound 1228, 7-methyl-1,5-benzodioxepin-3-one]",Complete Protection Time (no confirmed landing),Anopheles gambiae [4]; arm treated with 20%,1.33 h
same,Number of mosquitoes landing on the treated arm (test),"Anopheles gambiae [4]; arm treated with 20%, 30 min post-application",0
same,Number of mosquitoes landing on the treated arm (test),"Anopheles gambiae [4]; arm treated with 20%, 1 h post-application",0
same,Number of mosquitoes landing on the treated arm (test),"Anopheles gambiae [4]; arm treated with 20%, 2 h post-application",3.0 ± 1.8
same,Number of mosquitoes landing on the treated arm (test),"Anopheles gambiae [4]; arm treated with 20%, 3 h post-application",7.5 ± 1.1
same,protection,"Anopheles gambiae [4]; at 3 h, on two volunteers",79.64%
same,pest or weed control at 3.2 µg/mL,"Anopheles gambiae [5]; Anopheles gambiae, 0.0032 mg/mL (Table 5), read-out: Percentage of repellence of mosquitoes Anopheles gambiae landing on the warm body",0%
same,pest or weed control at 80 µg/mL,"Anopheles gambiae [5]; Anopheles gambiae, 0.08 mg/mL (Table 5), read-out: Percentage of repellence of mosquitoes Anopheles gambiae landing on the warm body",0%
same,pest or weed control at 178 µg/mL,"Anopheles gambiae [5]; Anopheles gambiae, 0.178 mg/mL (Table 4), read-out: Percentage of repellence of mosquitoes Anopheles gambiae landing on the warm body",48%
same,pest or weed control at 178 µg/mL,"Anopheles gambiae [5]; Anopheles gambiae, 0.178 mg/mL (Table 5), read-out: Percentage of repellence of mosquitoes Anopheles gambiae landing on the warm body",48%
same,pest or weed control at 267 µg/mL,"Anopheles gambiae [5]; Anopheles gambiae, 0.267 mg/mL (Table 4), read-out: Percentage of repellence of mosquitoes Anopheles gambiae landing on the warm body",85%
same,pest or weed control at 267 µg/mL,"Anopheles gambiae [5]; Anopheles gambiae, 0.267 mg/mL (Table 5), read-out: Percentage of repellence of mosquitoes Anopheles gambiae landing on the warm body",71%
same,pest or weed control at 400 µg/mL,"Anopheles gambiae [5]; Anopheles gambiae, 0.4 mg/mL (Table 4), read-out: Percentage of repellence of mosquitoes Anopheles gambiae landing on the warm body",65%
same,pest or weed control at 400 µg/mL,"Anopheles gambiae [5]; Anopheles gambiae, 0.4 mg/mL (Table 5), read-out: Percentage of repellence of mosquitoes Anopheles gambiae landing on the warm body",66%
same,pest or weed control at 598 µg/mL,"Anopheles gambiae [5]; Anopheles gambiae, 0.598 mg/mL (Table 5), read-out: Percentage of repellence of mosquitoes Anopheles gambiae landing on the warm body",69%
same,pest or weed control at 2000 µg/mL,"Anopheles gambiae [5]; Anopheles gambiae, 2 mg/mL (Table 5), read-out: Percentage of repellence of mosquitoes Anopheles gambiae landing on the warm body",92%
same,pest or weed control at 4470 µg/mL,"Anopheles gambiae [5]; Anopheles gambiae, 4.47 mg/mL (Table 4), read-out: Percentage of repellence of mosquitoes Anopheles gambiae landing on the warm body",92%
same,pest or weed control at 4470 µg/mL,"Anopheles gambiae [5]; Anopheles gambiae, 4.47 mg/mL (Table 5), read-out: Percentage of repellence of mosquitoes Anopheles gambiae landing on the warm body",92%
same,pest or weed control at 10000 µg/mL,"Anopheles gambiae [5]; Anopheles gambiae, 10 mg/mL (Table 4), read-out: Percentage of repellence of mosquitoes Anopheles gambiae landing on the warm body",100%
same,pest or weed control at 10000 µg/mL,"Anopheles gambiae [5]; Anopheles gambiae, 10 mg/mL (Table 5), read-out: Percentage of repellence of mosquitoes Anopheles gambiae landing on the warm body",100%
same,repellence (no mosquito landing on the attractive stimulus),Anopheles gambiae [5]; with at least one of the two concentrations 0.447% & 1% (Table 4),100%
same,pest or weed control at 16 µg/mL,"Aedes aegypti [1]; Aedes aegypti, 0.016 mg/mL (Table 3), read-out: Percentage of repellence of mosquitoes Aedes aegypti landing on the warm body",54%
same,pest or weed control at 400 µg/mL,"Aedes aegypti [1]; Aedes aegypti, 0.4 mg/mL (Table 3), read-out: Percentage of repellence of mosquitoes Aedes aegypti landing on the warm body",74%
same,pest or weed control at 10000 µg/mL,"Aedes aegypti [1]; Aedes aegypti, 10 mg/mL (Table 3), read-out: Percentage of repellence of mosquitoes Aedes aegypti landing on the warm body",100%
same,pest or weed control at 1 %,"Aedes aegypti [1]; Aedes aegypti, highest tested concentration, 1% (Table 3), read-out: repellence",> 90%
same,pest or weed control at 0.0016 %,"Aedes aegypti [1]; Aedes aegypti, lowest concentration of 0.0016% (Table 3), read-out: reduce the number of mosquito landings",> 50%
same,mosquito landing within the two minutes of experiments,"Aedes aegypti [1]; highest tested concentration, 1% (Table 3)",protect the attractive stimulus for any mosquito landing
"CCN(CC)C(=O)c1cccc(C)c1 [DEET, N,N-diethyl-meta-toluamide, reference compound]",movement of mosquitoes towards the refuge chamber,Aedes aegypti [3]; after 40 min of injection in the treated chamber,16.2%±7.3%
